Where two headings read alike, the source gives them in different places. Marks after values point to notes of the source that are not given here.
Assays:
[1] = molecular target: T1, OATP1B1 (Homo sapiens, UniProt Q9Y6L6)
[2] = molecular target: T2, OATP1B3 (Homo sapiens, UniProt Q9NPD5)
[3] = for Total plasma concentration at steady-state: healthy subjects, 10-mg once-daily regimen; for Ratio of geometric means of AUCτ / Ratio of geometric means of C tr: macitentan + Cs vs macitentan; for Ratio of geometric means of AUCτ: AUC(384h-408h)/AUC(96h-120h); for Ratio of geometric means of C tr: period 2 versus period 1
[4] = human, in vivo
[5] = tested on: wild-type CHO cells; settings: 3 μM, incubation for 40 s, 37°C; mean ± SD
[6] = molecular target: T1, OATP1B1; settings: for Uptake into OATP1B1 over-expressing cells: 3 μM, incubation for 40 s, 37°C, mean ± SD; for Difference in uptake rate between wild-type and OATP over-expressing cells: OATP1B1, different concentrations tested (Fig. 6)
[7] = molecular target: T2, OATP1B3; settings: for Uptake into OATP1B3 over-expressing cells: 3 μM, incubation for 40 s, 37°C, mean ± SD; for Difference in uptake rate between wild-type and OATP over-expressing cells: OATP1B3, different concentrations tested (Fig. 6)
[8] = molecular target: T1, OATP1B1; settings: OATP inhibition IC50 versus free plasma concentration
[9] = clinical; settings: human, plasma, oral, AUCτ, part A, macitentan + Cs, 384–408 h (day 17 of period 2), steady-state, geometric mean (95% CI)
[10] = clinical; settings: human, in vivo, AUCτ
[11] = cited from earlier work
[12] = cited from earlier work; remark: listed apart in the source
[13] = tested on: endothelin ETA and ETB receptor; settings: dual ERA; cited from earlier work
[14] = strong CYP3A4 inhibitor; cited from earlier work
[15] = in humans, after the first day of co-administration of Cs; cited from earlier work
[16] = macitentan + Cs versus macitentan alone
[17] = part A, macitentan + Cs, 384–408 h (day 17 of period 2), geometric mean (95% CI)
[18] = part A, macitentan alone, 96–120 h (day 5 of period 1), geometric mean (95% CI)

T2 sequence (Q9NPD5 whole entry): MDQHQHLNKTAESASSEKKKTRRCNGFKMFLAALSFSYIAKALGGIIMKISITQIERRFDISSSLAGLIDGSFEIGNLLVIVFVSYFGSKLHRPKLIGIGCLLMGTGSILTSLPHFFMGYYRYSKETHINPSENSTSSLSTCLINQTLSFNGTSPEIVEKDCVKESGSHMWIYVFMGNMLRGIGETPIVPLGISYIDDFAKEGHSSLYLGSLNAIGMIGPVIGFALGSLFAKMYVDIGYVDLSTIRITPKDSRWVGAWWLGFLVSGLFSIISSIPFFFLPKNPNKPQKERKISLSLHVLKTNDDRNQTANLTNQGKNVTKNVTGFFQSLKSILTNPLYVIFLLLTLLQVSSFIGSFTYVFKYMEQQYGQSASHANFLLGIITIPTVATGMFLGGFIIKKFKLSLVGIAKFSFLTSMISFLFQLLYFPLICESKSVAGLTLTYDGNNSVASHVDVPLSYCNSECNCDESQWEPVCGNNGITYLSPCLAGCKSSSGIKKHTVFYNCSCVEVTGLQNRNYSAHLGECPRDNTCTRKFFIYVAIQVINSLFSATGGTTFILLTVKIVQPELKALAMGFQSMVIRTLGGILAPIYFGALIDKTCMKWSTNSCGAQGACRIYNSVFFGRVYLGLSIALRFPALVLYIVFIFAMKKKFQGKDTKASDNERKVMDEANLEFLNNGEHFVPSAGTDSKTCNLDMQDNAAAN
T1 sequence (Q9Y6L6 whole entry): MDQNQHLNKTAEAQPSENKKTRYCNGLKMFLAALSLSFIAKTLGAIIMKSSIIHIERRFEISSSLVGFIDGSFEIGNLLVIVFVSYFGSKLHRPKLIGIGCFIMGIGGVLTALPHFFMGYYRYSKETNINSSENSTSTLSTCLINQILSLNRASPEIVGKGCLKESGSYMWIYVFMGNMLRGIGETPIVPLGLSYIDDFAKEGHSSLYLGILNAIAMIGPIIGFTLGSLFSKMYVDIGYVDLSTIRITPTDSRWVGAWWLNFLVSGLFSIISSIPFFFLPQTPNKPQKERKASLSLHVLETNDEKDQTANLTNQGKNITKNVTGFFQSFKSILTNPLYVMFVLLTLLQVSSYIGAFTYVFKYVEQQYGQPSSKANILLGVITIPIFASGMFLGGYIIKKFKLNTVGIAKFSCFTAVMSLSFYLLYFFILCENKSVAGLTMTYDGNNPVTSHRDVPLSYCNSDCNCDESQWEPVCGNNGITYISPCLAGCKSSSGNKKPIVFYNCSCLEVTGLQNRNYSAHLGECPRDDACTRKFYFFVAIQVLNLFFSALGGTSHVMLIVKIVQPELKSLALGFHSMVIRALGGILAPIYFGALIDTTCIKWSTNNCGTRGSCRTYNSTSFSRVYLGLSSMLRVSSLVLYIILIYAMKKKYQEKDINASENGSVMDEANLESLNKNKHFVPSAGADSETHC

| IC50 [1] | Total plasma concentration at steady-state [3] | Ratio of geometric means of AUCτ ([3]; part A) | Ratio of geometric means of C tr ([3]; part A) | C tr [3, 17] | C tr [3, 18] | Decrease of steady-state AUCτ in the presence of rifampin [4] | Ratio of geometric means of AUCτ [4] | Ratio of geometric means of C tr [4] | Uptake into wild-type cells [5] | Uptake into OATP1B1 over-expressing cells [6] | Difference in uptake rate between wild-type and OATP over-expressing cells [6] | Uptake into OATP1B3 over-expressing cells [7] | Difference in uptake rate between wild-type and OATP over-expressing cells [7] | Free steady-state plasma concentration lower than the lowest IC50 determined [8] | AUC [9] | Increase of steady-state AUCτ in the presence of Cs [3, 16] | SMILES | elimination half-life (t 1/2) ([11]; in humans) | Binding to human plasma proteins in vitro [12] | also measured |
| --- | --- | --- | --- | --- | --- | --- | --- | --- | --- | --- | --- | --- | --- | --- | --- | --- | --- | --- | --- | --- |
| 19.9 ± 1.4 µM | ~1.5 µM | 0.97 ng·h/mL | 1.02 ng·h/mL | 640 (550, 745) ng/mL | 626 (547, 717) ng/mL | 0.3% | 1.00 ng·h/mL | 0.83^a ng·h/mL | 214 ± 11 pmol/mg | 237 ± 7 pmol/mg | No marked difference | 288 ± 10 pmol/mg | No marked difference | around 2,490 fold | 16400 ng·h/mL |  | NS(=O)(=O)Nc1ncnc(OCCOc2ncc(Br)cn2)c1-c1ccc(Br)cc1 [ACT-132577] | approximately 48 h | 99.5% | IC50 [2]: 51.6 ± 3 µM; Systemic exposure in humans relative to macitentan (higher) ([3]; in humans): 2.5 fold; Decrease of steady-state AUCτ in the presence of Cs [3, 16]: 3%; AUCτ [4]: 14,798 (13,216, 16,569) ng·h/mL; AUC [10]: 14800 ng·h/mL; Potency in vitro relative to macitentan (less potent) [13]: approximately five-fold |
|  |  | 1.07^a ng·h/mL | 1.12^a ng·h/mL | 20 (15, 26) ng/mL | 17 (13, 24) ng/mL | 64% | 0.36^a ng·h/mL | 0.14^a ng·h/mL |  |  |  |  |  |  |  | 7% | CCCNS(=O)(=O)Nc1ncnc(OCC(=O)O)c1-c1ccc(Br)cc1 [ACT-373898] |  |  | AUCτ ([3]; part A, macitentan + Cs, 384–408 h (day 17 of period 2), steady-state, plasma, geometric mean (95% CI)): 568 (432, 747) ng·h/mL |
| 6.3 ± 0.7 µM | approximately 0.63 μM | 1.10^a ng·h/mL | 1.38^a ng·h/mL | 220 (176, 274) ng/mL | 159 (121, 209) ng/mL | 79% | 0.21^a ng·h/mL | 0.07^a ng·h/mL | 346 ± 3 pmol/mg | 362 ± 6 pmol/mg | No marked difference | 387 ± 11 pmol/mg | No marked difference | around 2,490 fold | 7560 ng·h/mL | 10% | CCCNS(=O)(=O)Nc1ncnc(OCCOc2ncc(Br)cn2)c1-c1ccc(Br)cc1 [Macitentan] | approximately 16 h | 99.6% | Tolerability ([3]; co-administered with Cs, healthy male subjects): well tolerated; Subjects affected by treatment-emergent AEs ([3]; part A, period 1 (macitentan alone), 10 subjects): 30%; Reduction in exposure in the presence of rifampin [4]: approximately four-fold; Tolerability [4]: well tolerated; Time to maximum plasma concentrations after administration ([11]; in humans): approximately 8 h; Tolerability ([11]; single-ascending dose study, doses of up to 300 mg): well tolerated; Increase of AUC0–∞ in the presence of ketoconazole [14]: approximately two-fold |
|  |  |  |  |  |  |  |  |  |  |  |  |  |  |  |  |  | COc1ccccc1Oc1c(NS(=O)(=O)c2ccc(C(C)(C)C)cc2)nc(-c2ncccn2)nc1OCCO [bosentan] |  |  | Increase in exposure in the presence of Cs [15]: 30 fold |

Source: paper PMC3282010 (The AAPS Journal, 2011)
